IC50 data for twelve compounds are collected here from US11319315B2, “Cyclohexyl acid triazole azoles as LPA antagonists” (BRISTOL-MYERS SQUIBB COMPANY, priority 2017, dated 2022).

This test addresses T1, human LPA1 (Homo sapiens, UniProt Q92633).
T1 construct: expressed in transfected cells; host or cells: Chinese hamster ovary (CHO) cells
The experiment in a line: LPA1 functional antagonist assay (LPA-induced calcium flux in CHO cells overexpressing human LPA1). The class given is cell-based. Particulars: inhibition of calcium flux induced by 10 nM LPA, CHO cells overexpressing human LPA1; read-out: hLPA1 IC50. Summed up:
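Calcium flux was triggered by 10 nM LPA after 20 min room-temperature compound pre-incubation (final 0.08 nM to 5 μM, 0.5% DMSO) in human LPA1-overexpressing CHO cells carrying calcium dye. Buffer: HBSS with Ca/Mg, 20 mM HEPES, 0.1% fatty-acid-free BSA; IC50s from 4-parameter logistic fits.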
For orientation: Calcium flux is commonly read through the fluorescence of an indicator in the cells.

T1 sequence (Q92633 whole entry): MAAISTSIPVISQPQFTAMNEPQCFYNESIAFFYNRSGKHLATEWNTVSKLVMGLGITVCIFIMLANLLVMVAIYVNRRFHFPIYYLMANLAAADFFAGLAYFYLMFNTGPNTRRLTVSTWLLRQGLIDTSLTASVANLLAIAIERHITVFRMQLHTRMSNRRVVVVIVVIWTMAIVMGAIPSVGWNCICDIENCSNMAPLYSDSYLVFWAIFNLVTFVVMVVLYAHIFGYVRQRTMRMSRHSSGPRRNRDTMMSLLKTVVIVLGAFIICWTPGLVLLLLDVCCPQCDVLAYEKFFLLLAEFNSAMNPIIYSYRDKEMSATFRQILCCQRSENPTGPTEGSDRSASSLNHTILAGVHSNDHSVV

For the compound `Cc1nc(-c2nnn(C)c2Cn2cnc(-c3ccccc3)n2)ccc1O[C@H]1CCC[C@H](C(=O)O)C1` [Example 208, (1S,3S)-3-((2-Methyl-6-(1-methyl-5-((3-phenyl-1H-1,2,4-triazol-1-yl)methyl)-1H-1,2,3-triazol-4-yl)pyridin-3-yl)oxy)cyclohexane-1-carboxylic acid], the 50% inhibitory concentration (IC50) (usually the concentration needed to halve the response being measured) turned out to be 370 nM.
The value for `Cc1nc(-c2nnn(C)c2Cn2cnnc2CC2CC2)ccc1O[C@H]1CCC[C@H](C(=O)O)C1` [Example 209] was 2080 nM; that for `Cc1nc(-c2nnn(C)c2Cn2cnc(CC3CC3)n2)ccc1O[C@H]1CCC[C@H](C(=O)O)C1` [Example 210] was 191 nM; that for `Cc1nc(-c2nnn(C)c2CNc2ncn(-c3cc(F)cc(F)c3)n2)ccc1O[C@H]1CCC[C@H](C(=O)O)C1` [Example 211, (1 S,3 S)-3-((6-(5-(((1-(3,5-difluorophenyl)-1H-1,2,4-triazol-3-yl)amino)methyl)-1-methyl-1H-1,2,3-triazol-4-yl)-2-methylpyridin-3-yl)oxy)cyclohexane-1-carboxylic acid] was 45 nM.
For `Cc1nc(-c2nnn(C)c2CNc2noc(COC3CC3)n2)ccc1O[C@H]1CCC[C@H](C(=O)O)C1` [Example 212, (1 S,3 S)-3-((6-(5-(((5-(cyclopropoxymethyl)-1,2,4-oxadiazol-3-yl)amino)methyl)-1-methyl-1H-1,2,3-triazol-4-yl)-2-methylpyridin-3-yl)oxy)cyclohexane-1-carboxylic acid], the half-inhibitory concentration (IC50) turned out to be 34 nM.
With `CCOCCc1nc(NCc2c(-c3ccc(O[C@H]4CCC[C@H](C(=O)O)C4)c(C)n3)nnn2C)no1` [Example 213, (1S,3S)-3-((6-(5-(((5-(2-ethoxy-ethyl)-1,2,4-oxadiazol-3-yl)amino)methyl)-1-methyl-1H-1,2,3-triazol-4-yl)-2-methylpyridin-3-yl)oxy)cyclohexane-1-carboxylic acid], the IC50 stood at 98 nM.
With `Cc1nc(-c2nnn(C)c2CNc2noc(CCOC(C)C)n2)ccc1O[C@H]1CCC[C@H](C(=O)O)C1` [Example 214, (1S,3S)-3-((6-(5-(((5-(2-isopro-poxyethyl)-1,2,4-oxadiazol-3-yl)amino)methyl)-1-methyl-1H-1,2,3-triazol-4-yl)-2-methylpyridin-3-yl)oxy)cyclohexane-1-carboxylic acid], the 50% inhibitory concentration (IC50) is 246 nM.
The value for `CCCO[C@H](C)c1nc(NCc2c(-c3ccc(O[C@H]4CCC[C@H](C(=O)O)C4)c(C)n3)nnn2C)no1` [Example 219, (1S,3S)-3-((2-methyl-6-(1-methyl-5-(((5-((R)-1-propoxyethyl)-1,2,4-oxadiazol-3-yl)amino)methyl)-1H-1,2,3-triazol-4-yl)pyridin-3-yl)oxy)cyclohexane-1-carboxylic acid] was 63 nM; that for `CCCO[C@@H](C)c1nc(NCc2c(-c3ccc(O[C@H]4CCC[C@H](C(=O)O)C4)c(C)n3)nnn2C)no1` [Example 220] was 160 nM.
Turning to `CCc1nc(N(C)Cc2c(-c3ccc(O[C@H]4CCC[C@H](C(=O)O)C4)c(C)n3)nnn2C)no1` [Example 224, (1S,3S)-3-((6-(5-(((5-ethyl-1,2,4-oxadiazol-3-yl)(methyl)amino)methyl)-1-methyl-1H-1,2,3-triazol-4-yl)-2-methylpyridin-3-yl)oxy)cyclo-hexane-1-carboxylic acid], the half-maximal inhibitory concentration (IC50) was found to be 2720 nM.
For `CCOC1(c2nc(NCc3c(-c4ccc(O[C@H]5CCC[C@H](C(=O)O)C5)c(C)n4)nnn3C)no2)CC1` [Example 225, (1S,3S)-3-((6-(5-(((5-(1-ethoxy-cyclopropyl)-1,2,4-oxadiazol-3-yl)amino)methyl)-1-methyl-1H-1,2,3-triazol-4-yl)-2-methylpyridin-3-yl)oxy)cyclohexane-1-carboxylic acid], the 50% inhibitory concentration (IC50) came out at 1320 nM.
On to `Cc1nc(-c2nnn(C)c2Cc2noc(CCC(C)(F)F)n2)ccc1O[C@H]1CCC[C@H](C(=O)O)C1` [Example 227, (1 S,3 S)-3-((6-(5-((5-(3,3-difluorobutyl)-1,2,4-oxadiazol-3-yl)methyl)-1-methyl-1H-1,2,3-triazol-4-yl)-2-methylpyridin-3-yl)oxy)cyclohexane-1-carboxylic acid], for which the IC50 is 2 nM.
